Source: patent publication US12653814B2, “Benzimidazolone-based cinnamamide derivative as TRPV1 antagonist and pharmaceutical composition for treatment or prevention of pain containing same as active ingredient” (JMACKEM CO., LTD, priority 2020, dated 2026)

Assays:
[1] = biological target: T1, human TRPV1 (hTRPV1) (Homo sapiens, UniProt Q8NER1); assay: Ca2+ influx assay, antagonism against capsaicin in hTRPV1-HEK recombinant cells; type: cell-based; conditions: capsaicin 10 nM as activator, Fluo4-NW fluorescence, read-out: hTRPV1 IC50 [cap]
T1 construct: host or cells: HEK (PrecisION hTRPV1-HEK recombinant cell line)

[2] = biological target: T1, human TRPV1 (hTRPV1); assay: Evaluation of human pH inhibitory activity in hTRPV1-HEK recombinant cells; type: cell-based; conditions: inhibition of activation at final pH 6.0, test substance 3 μM
Description: Evaluation of Human pH Inhibitory Activity
PrecisION™ hTRPV1-HEK recombinant cells (CYL3063) were purchased from Millipore and used. After culturing the above cells under the conditions of 37° C. and 5% CO2, the cells were inoculated in a 96-well plate at the density of 5×10^4 cells/well, followed by culture for 16 hours. Then, the medium was removed and 100 uL of a staining solution was put into each well, followed by culture for 30 minutes under the conditions of 37° C. and 5% CO2. After 30 minutes, all of the existing staining solution was removed and replaced with 100 uL of HBSS. Thereafter, the cells were acclimatized to room temperature for 15 minutes, and the test substances (example compounds and comparative example compounds of the present invention) were added to each well, followed by culture at room temperature for 15 minutes. Then, the final pH was adjusted to 6.0 using MES, and fluorescence was measured (ex485/em535). In the pH assay, the efficacy of the drug was evaluated using BCTC as a TRPV1 antagonist.

T1 sequence (Q8NER1 whole entry): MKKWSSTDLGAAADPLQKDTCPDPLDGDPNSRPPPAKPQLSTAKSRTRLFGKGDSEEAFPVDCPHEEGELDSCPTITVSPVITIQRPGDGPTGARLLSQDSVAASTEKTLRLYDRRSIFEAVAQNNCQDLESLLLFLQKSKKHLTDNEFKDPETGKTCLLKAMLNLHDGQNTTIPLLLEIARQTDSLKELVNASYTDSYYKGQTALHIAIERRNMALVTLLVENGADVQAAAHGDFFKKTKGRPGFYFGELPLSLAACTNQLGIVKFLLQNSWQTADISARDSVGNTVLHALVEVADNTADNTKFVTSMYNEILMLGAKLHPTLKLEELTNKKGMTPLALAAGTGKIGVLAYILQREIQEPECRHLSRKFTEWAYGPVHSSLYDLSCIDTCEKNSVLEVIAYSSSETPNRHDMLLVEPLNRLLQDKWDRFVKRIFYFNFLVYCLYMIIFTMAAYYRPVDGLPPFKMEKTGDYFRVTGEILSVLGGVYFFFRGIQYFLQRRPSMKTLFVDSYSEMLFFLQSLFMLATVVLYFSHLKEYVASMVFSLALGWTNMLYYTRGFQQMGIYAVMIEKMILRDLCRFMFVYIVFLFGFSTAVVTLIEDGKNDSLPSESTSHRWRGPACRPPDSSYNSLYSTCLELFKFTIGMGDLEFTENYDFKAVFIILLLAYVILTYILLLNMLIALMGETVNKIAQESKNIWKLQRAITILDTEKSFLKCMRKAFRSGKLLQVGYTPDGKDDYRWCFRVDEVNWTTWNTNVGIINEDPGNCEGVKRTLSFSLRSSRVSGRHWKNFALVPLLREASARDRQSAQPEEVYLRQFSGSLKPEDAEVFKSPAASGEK

SMILES	IC50 [1]	hTRPV1 pH (%, 3 μM) [2]
Cc1cccc(-n2nc(C(F)(F)F)cc2/C=C/C(=O)Nc2cccc3[nH]c(=O)[nH]c23)c1 [Example 48, (E)-N-(2-oxo-2,3-dihydro-1H-benzo[d]imidazol-4-yl)-3-(1-(m-tolyl)-3-(trifluoromethyl)-1H-pyrazol-5-yl)acrylamide]	9.95 nM	29.43%
CC1CCN(c2nc(C(F)(F)F)ccc2/C=C/C(=O)Nc2cccc3[nH]c(=O)[nH]c23)CC1 [Example 1, (E)-3-(2-(4-methylpiperidin-1-yl)-6-(trifluoromethyl)pyridin-3-yl)-N-(2-oxo-2,3-dihydro-1H-benzo[d]imidazol-4-yl)acrylamide]	37 nM	78.62%
CCCN(CCC)c1nc(C(F)(F)F)ccc1/C=C/C(=O)Nc1cccc2[nH]c(=O)[nH]c12 [Example 7, (E)-3-(2-(dipropylamino)-6-(trifluoromethyl)pyridin-3-yl)-N-(2-oxo-2,3-dihydro-1H-benzo[d]imidazol-4-yl)acrylamide]	23.3 nM	89.87%
O=C(Nc1cccc2[nH]c(=O)[nH]c12)C1CC1c1cc(C(F)(F)F)nn1-c1cccc(Cl)c1 (stereo not shown) [Example 63, 2-(1-(3-chlorophenyl)-3-(trifluoromethyl)-1H-pyrazol-5-yl)-N-(2-oxo-2,3-dihydro-1H-benzo[d]imidazol-4-yl)cyclopropane-1-carboxamide]	10.3 nM	0.53%
O=C(/C=C/c1ccc(C(F)(F)F)nc1OC1CCC1)Nc1cccc2[nH]c(=O)[nH]c12 [Example 11, (E)-3-(2-cyclobutoxy-6-(trifluoromethyl)pyridin-3-yl)-N-(2-oxo-2,3-dihydro-1H-benzo[d]imidazol-4-yl)acrylamide]	37.8 nM	88.23%
CC1(c2ccc(/C=C/C(=O)Nc3cccc4[nH]c(=O)[nH]c34)c(OCC3CC3)n2)CC1 [Example 20, (E)-3-(2-(cyclopropylmethoxy)-6-(1-methylcyclopropyl)pyridin-3-yl)-N-(2-oxo-2,3-dihydro-1H-benzo[d]imidazol-4-yl)acrylamide]	53.5 nM	86.79%
O=C(CCc1ccc(C(F)(F)F)nc1OCC1CC1)Nc1cccc2[nH]c(=O)[nH]c12 [Example 60, 3-(2-(cyclopropylmethoxy)-6-(trifluoromethyl)pyridin-3-yl)-N-(2-oxo-2,3-dihydro-1H-benzo[d]imidazol-4-yl)propaneamide]	23.7 nM	67.19%
O=C(/C=C/c1cc(C(F)(F)F)nn1-c1ccc(F)c(Cl)c1)Nc1cccc2[nH]c(=O)[nH]c12 [Example 49, (E)-3-(1-(3-chloro-4-fluorophenyl)-3-(trifluoromethyl)-1H-pyrazol-5-yl)-N-(2-oxo-2,3-dihydro-1H-benzo[d]imidazol-4-yl)acrylamide]	19.9 nM	21.37%
O=C(/C=C/c1ccc(C(F)(F)F)nc1-c1ccc(F)cc1)Nc1cccc2[nH]c(=O)[nH]c12 [Example 34, (E)-3-(2-(4-fluorophenyl)-6-(trifluoromethyl)pyridin-3-yl)-N-(2-oxo-2,3-dihydro-1H-benzo[d]imidazol-4-yl)acrylamide]	11.1 nM	37.85%
CC(C)c1cccc(-n2nc(C(F)(F)F)cc2/C=C/C(=O)Nc2cccc3[nH]c(=O)[nH]c23)c1 [Example 50, (E)-3-(1-(3-isopropylphenyl)-3-(trifluoromethyl)-1H-pyrazol-5-yl)-N-(2-oxo-2,3-dihydro-1H-benzo[d]imidazol-4-yl)acrylamide]	41.3 nM	34.22%
O=C(/C=C/c1ccc(C(F)(F)F)nc1N1CCOCC1)Nc1cccc2[nH]c(=O)[nH]c12 [Example 5, (E)-3-(2-morpholino-6-(trifluoromethyl)pyridin-3-yl)-N-(2-oxo-2,3-dihydro-1H-benzo[d]imidazol-4-yl)acrylamide]	16.3 nM	94.79%
O=C(/C=C/c1ccc(C(F)(F)F)nc1-c1cccc(Cl)c1)Nc1cccc2[nH]c(=O)[nH]c12 [Example 31, (E)-3-(2-(3-chlorophenyl)-6-(trifluoromethyl)pyridin-3-yl)-N-(2-oxo-2,3-dihydro-1H-benzo[d]imidazol-4-yl)acrylamide]	26 nM	82.34%
O=C(/C=C/c1ccc(C(F)F)nc1OCC1CC1)Nc1cccc2[nH]c(=O)[nH]c12 [Example 21, (E)-3-(2-(cyclopropylmethoxy)-6-(difluoromethyl)pyridin-3-yl)-N-(2-oxo-2,3-dihydro-1H-benzo[d]imidazol-4-yl)acrylamide]	26.1 nM	79.89%
O=C(/C=C/c1sc(C2CC2)nc1-c1cccc(Cl)c1)Nc1cccc2[nH]c(=O)[nH]c12 [Example 56, (E)-3-(4-(3-chlorophenyl)-2-cyclopropylthiazol-5-yl)-N-(2-oxo-2,3-dihydro-1H-benzo[d]imidazol-4-yl)acrylamide]	26 nM	68.23%
O=C(/C=C/c1ccc(C(F)(F)F)cc1OCC1CC1)Nc1cccc2[nH]c(=O)[nH]c12 [Example 43, (E)-3-(2-(cyclopropylmethoxy)-4-(trifluoromethyl)phenyl)-N-(2-oxo-2,3-dihydro-1H-benzo[d]imidazol-4-yl)acrylamide]	19.7 nM	87.68%

Continued, values first:

IC50 [1]	hTRPV1 pH (%, 3 μM) [2]	SMILES
34.1 nM	89.76%	O=C(/C=C/c1ccc(C(F)(F)F)nc1OCC1CCC1)Nc1cccc2[nH]c(=O)[nH]c12 [Example 25, (E)-3-(2-(cyclobutylmethoxy)-6-(trifluoromethyl)pyridin-3-yl)-N-(2-oxo-2,3-dihydro-1H-benzo[d]imidazol-4-yl)acrylamide]
40.9 nM	78.45%	CC(C)CSc1nc(C(F)(F)F)ccc1/C=C/C(=O)Nc1cccc2[nH]c(=O)[nH]c12 [Example 27, (E)-3-(2-(isobutylthio)-6-(trifluoromethyl)pyridin-3-yl)-N-(2-oxo-2,3-dihydro-1H-benzo[d]imidazol-4-yl)acrylamide]
35.4 nM	67.89%	CC(C)(C)C#Cc1nc(C(F)(F)F)ccc1/C=C/C(=O)Nc1cccc2[nH]c(=O)[nH]c12 [Example 39, (E)-3-(2-(3,3-dimethyl-1-butyn-1-yl)-6-(trifluoromethyl)pyridin-3-yl)-N-(2-oxo-2,3-dihydro-1H-benzo[d]imidazol-4-yl)acrylamide]
56.9 nM	83.20%	O=C(/C=C/c1ccc(C(F)(F)Cl)nc1OCC1CC1)Nc1cccc2[nH]c(=O)[nH]c12 [Example 17, (E)-3-(6-(chlorodifluoromethyl)-2-(cyclopropylmethoxy)pyridin-3-yl)-N-(2-oxo-2,3-dihydro-1H-benzo[d]imidazol-4-yl)acrylamide]
86 nM	97.34%	CC1CC1COc1nc(C(F)(F)F)ccc1/C=C/C(=O)Nc1cccc2[nH]c(=O)[nH]c12 (stereo not shown) [Example 16, (E)-3-(2-((2-methylcyclopropyl)methoxy)-6-(trifluoromethyl)pyridin-3-yl)-N-(2-oxo-2,3-dihydro-1H-benzo[d]imidazol-4-yl)acrylamide]
34.5 nM	94.03%	O=C(/C=C/c1ccc(C(F)(F)F)nc1OCC(F)(F)F)Nc1cccc2[nH]c(=O)[nH]c12 [Example 14, (E)-N-(2-oxo-2,3-dihydro-1H-benzo[d]imidazol-4-yl)-3-(2-(2,2,2-trifluoroethoxy)-6-(trifluoromethyl)pyridin-3-yl)acrylamide]
11.8 nM	95.87%	O=C(/C=C/c1ccc(C(F)(F)F)nc1-c1cccs1)Nc1cccc2[nH]c(=O)[nH]c12 [Example 35, (E)-N-(2-oxo-2,3-dihydro-1H-benzo[d]imidazol-4-yl)-3-(2-(thiophen-2-yl)-6-(trifluoromethyl)pyridin-3-yl)acrylamide]
11 nM	100.46%	O=C(/C=C/c1ccc(C(F)(F)F)nc1-c1ccco1)Nc1cccc2[nH]c(=O)[nH]c12 [Example 36, (E)-3-(2-(furan-2-yl)-6-(trifluoromethyl)pyridin-3-yl)-N-(2-oxo-2,3-dihydro-1H-benzo[d]imidazol-4-yl)acrylamide]
31.2 nM	90.86%	CC(F)(F)c1ccc(/C=C/C(=O)Nc2cccc3[nH]c(=O)[nH]c23)c(OCC2CC2)n1 [Example 22, (E)-3-(2-(cyclopropylmethoxy)-6-(1,1-difluoroethyl)pyridin-3-yl)-N-(2-oxo-2,3-dihydro-1H-benzo[d]imidazol-4-yl)acrylamide]
54.4 nM	95.11%	O=C(/C=C/c1ccc(C(F)(F)F)nc1OCC1CCCC1)Nc1cccc2[nH]c(=O)[nH]c12 [Example 26, (E)-3-(2-(cyclopentylmethoxy)-6-(trifluoromethyl)pyridin-3-yl)-N-(2-oxo-2,3-dihydro-1H-benzo[d]imidazol-4-yl)acrylamide]
31.5 nM	81.25%	O=C(/C=C/c1ccc(C(F)(F)F)nc1OC1CCCC1)Nc1cccc2[nH]c(=O)[nH]c12 [Example 12, (E)-3-(2-(cyclopentyloxy)-6-(trifluoromethyl)pyridin-3-yl)-N-(2-oxo-2,3-dihydro-1H-benzo[d]imidazol-4-yl)acrylamide]
